Laboratory results reported in the NIST ThermoML archive (doi:10.1021/je200434a).
± gives the expanded uncertainty stated by the source.

Conditions: 101.33 kPa, Liquid; for viscosity: Concentric cylinders viscometry; for mass density: Vibrating tube method

CCn1cc[n+](C)c1.O=S(=O)([O-])O [1-ethyl-3-methylimidazolium hydrogen sulfate]
Conditions	mass density [kg/m3]	viscosity [mPa·s]
283.15 K	–	5756.7 ± 410
288.15 K	–	3635 ± 240
293.15 K	1368.86 ± 0.58	2389.9 ± 150
294.15 K	1368.25 ± 0.58	–
295.15 K	1367.63 ± 0.58	–
296.15 K	1367 ± 0.58	–
297.15 K	1366.38 ± 0.58	–
298.15 K	1365.77 ± 0.58	1628.4 ± 96
299.15 K	1365.14 ± 0.58	–
300.15 K	1364.53 ± 0.58	–
301.15 K	1363.91 ± 0.58	–
302.15 K	1363.29 ± 0.58	–
303.15 K	1362.67 ± 0.58	1144.8 ± 64
304.15 K	1362.05 ± 0.58	–
305.15 K	1361.44 ± 0.58	–
306.15 K	1360.82 ± 0.58	–
307.15 K	1360.21 ± 0.58	–
308.15 K	1359.59 ± 0.58	827.1 ± 44
309.15 K	1358.98 ± 0.58	–
310.15 K	1358.76 ± 0.58	–
311.15 K	1358.14 ± 0.58	–
312.15 K	1357.52 ± 0.58	–
313.15 K	1356.9 ± 0.58	612.2 ± 31
314.15 K	1356.28 ± 0.58	–
315.15 K	1355.67 ± 0.57	–
316.15 K	1355.05 ± 0.57	–
317.15 K	1354.43 ± 0.57	–
318.15 K	1353.81 ± 0.57	463 ± 23
319.15 K	1353.19 ± 0.57	–
320.15 K	1352.57 ± 0.57	–
321.15 K	1351.96 ± 0.57	–
322.15 K	1351.34 ± 0.57	–
323.15 K	1350.72 ± 0.57	356.8 ± 17
324.15 K	1350.11 ± 0.57	–
325.15 K	1349.49 ± 0.57	–
326.15 K	1348.88 ± 0.57	–
327.15 K	1348.27 ± 0.57	–
328.15 K	1347.65 ± 0.57	279.7 ± 13
329.15 K	1347.04 ± 0.57	–
330.15 K	1346.43 ± 0.57	–
331.15 K	1345.82 ± 0.57	–
332.15 K	1345.2 ± 0.57	–
333.15 K	1344.6 ± 0.57	222.6 ± 9.9
334.15 K	1343.99 ± 0.57	–
335.15 K	1343.38 ± 0.57	–
336.15 K	1342.77 ± 0.57	–
337.15 K	1342.16 ± 0.57	–
338.15 K	1341.56 ± 0.56	179.6 ± 7.8
339.15 K	1340.95 ± 0.56	–
340.15 K	1340.35 ± 0.56	–
341.15 K	1339.75 ± 0.56	–
342.15 K	1339.14 ± 0.56	–
343.15 K	1338.54 ± 0.56	146.7 ± 6.2
344.15 K	1337.94 ± 0.56	–
345.15 K	1337.34 ± 0.56	–
346.15 K	1336.74 ± 0.56	–
347.15 K	1336.14 ± 0.56	–
348.15 K	1335.54 ± 0.56	121.2 ± 5.1
349.15 K	1334.94 ± 0.56	–
350.15 K	1334.35 ± 0.56	–
351.15 K	1333.75 ± 0.56	–
352.15 K	1333.16 ± 0.56	–
353.15 K	1332.57 ± 0.56	101.2 ± 4.2
354.15 K	1331.97 ± 0.56	–
355.15 K	1331.38 ± 0.56	–
356.15 K	1330.79 ± 0.56	–
357.15 K	1330.2 ± 0.56	–
358.15 K	1329.61 ± 0.56	85.2 ± 3.5
359.15 K	1329.02 ± 0.56	–
360.15 K	1328.44 ± 0.56	–
361.15 K	1327.85 ± 0.56	–
362.15 K	1327.26 ± 0.56	–
363.15 K	1326.68 ± 0.55	72.4 ± 2.9
368.15 K	–	61.9 ± 2.5
373.15 K	–	53.4 ± 2.2

CCn1cc[n+](C)c1.COS(=O)(=O)[O-] [1-ethyl-3-methylimidazolium methylsulfate]
Conditions	mass density [kg/m3]	viscosity [mPa·s]
283.15 K	–	169.5 ± 7.3
288.15 K	–	128.6 ± 5.4
293.15 K	1289.48 ± 0.53	99.7 ± 4.1
294.15 K	1288.8 ± 0.53	–
295.15 K	1288.1 ± 0.53	–
296.15 K	1287.41 ± 0.53	–
297.15 K	1286.71 ± 0.53	–
298.15 K	1286.02 ± 0.53	78.8 ± 3.2
299.15 K	1285.33 ± 0.53	–
300.15 K	1284.64 ± 0.52	–
301.15 K	1283.95 ± 0.52	–
302.15 K	1283.26 ± 0.52	–
303.15 K	1282.57 ± 0.52	63.4 ± 2.6
304.15 K	1281.89 ± 0.52	–
305.15 K	1281.2 ± 0.52	–
306.15 K	1280.52 ± 0.52	–
307.15 K	1279.84 ± 0.52	–
308.15 K	1279.15 ± 0.52	51.8 ± 2.1
309.15 K	1278.48 ± 0.52	–
310.15 K	1277.8 ± 0.52	–
311.15 K	1277.12 ± 0.52	–
312.15 K	1276.44 ± 0.52	–
313.15 K	1275.76 ± 0.52	42.9 ± 1.7
314.15 K	1275.09 ± 0.52	–
315.15 K	1274.41 ± 0.52	–
316.15 K	1273.74 ± 0.52	–
317.15 K	1273.07 ± 0.52	–
318.15 K	1272.4 ± 0.52	35.9 ± 1.5
319.15 K	1271.72 ± 0.52	–
320.15 K	1271.05 ± 0.52	–
321.15 K	1270.38 ± 0.52	–
322.15 K	1269.71 ± 0.52	–
323.15 K	1269.04 ± 0.51	30.5 ± 1.2
324.15 K	1268.37 ± 0.51	–
325.15 K	1267.71 ± 0.51	–
326.15 K	1267.04 ± 0.51	–
327.15 K	1266.38 ± 0.51	–
328.15 K	1265.71 ± 0.51	26.1 ± 1.1
329.15 K	1265.05 ± 0.51	–
330.15 K	1264.39 ± 0.51	–
331.15 K	1263.72 ± 0.51	–
332.15 K	1263.06 ± 0.51	–
333.15 K	1262.4 ± 0.51	22.6 ± 0.9
334.15 K	1261.74 ± 0.51	–
335.15 K	1261.08 ± 0.51	–
336.15 K	1260.42 ± 0.51	–
337.15 K	1259.76 ± 0.51	–
338.15 K	1259.1 ± 0.51	19.7 ± 0.8
339.15 K	1258.44 ± 0.51	–
340.15 K	1257.78 ± 0.51	–
341.15 K	1257.13 ± 0.51	–
342.15 K	1256.47 ± 0.51	–
343.15 K	1255.81 ± 0.51	17.3 ± 0.7
344.15 K	1255.15 ± 0.51	–
345.15 K	1254.5 ± 0.51	–
346.15 K	1253.84 ± 0.5	–
347.15 K	1253.19 ± 0.5	–
348.15 K	1252.54 ± 0.5	15.3 ± 0.6
349.15 K	1251.88 ± 0.5	–
350.15 K	1251.23 ± 0.5	–
351.15 K	1250.58 ± 0.5	–
352.15 K	1249.93 ± 0.5	–
353.15 K	1249.28 ± 0.5	13.6 ± 0.6
354.15 K	1248.63 ± 0.5	–
355.15 K	1247.98 ± 0.5	–
356.15 K	1247.33 ± 0.5	–
357.15 K	1246.68 ± 0.5	–
358.15 K	1246.03 ± 0.5	12.2 ± 0.5
359.15 K	1245.38 ± 0.5	–
360.15 K	1244.74 ± 0.5	–
361.15 K	1244.09 ± 0.5	–
362.15 K	1243.44 ± 0.5	–
363.15 K	1242.8 ± 0.5	11 ± 0.4
368.15 K	–	9.9 ± 0.4
373.15 K	–	9 ± 0.4

CCCCCCCCOS(=O)(=O)[O-].CCn1cc[n+](C)c1 [1-ethyl-3-methylimidazolium octyl sulfate]
Conditions	mass density [kg/m3]	viscosity [mPa·s]
283.15 K	–	1879 ± 110
288.15 K	–	1252.1 ± 72
293.15 K	1098.76 ± 1	856 ± 46
294.15 K	1098.1 ± 1	–
295.15 K	1097.43 ± 1	–
296.15 K	1096.77 ± 1	–
297.15 K	1096.31 ± 1	–
298.15 K	1095.65 ± 1	601.6 ± 31
299.15 K	1094.99 ± 1	–
300.15 K	1094.32 ± 1	–
301.15 K	1093.65 ± 1	–
302.15 K	1092.99 ± 1	–
303.15 K	1092.32 ± 1	433.6 ± 21
304.15 K	1091.66 ± 1	–
305.15 K	1090.99 ± 1	–
306.15 K	1090.33 ± 1	–
307.15 K	1089.66 ± 1	–
308.15 K	1089 ± 1	319.6 ± 15
309.15 K	1088.33 ± 1	–
310.15 K	1087.67 ± 1	–
311.15 K	1087 ± 1	–
312.15 K	1086.34 ± 1	–
313.15 K	1085.68 ± 1	240.5 ± 11
314.15 K	1085.02 ± 1	–
315.15 K	1084.36 ± 1	–
316.15 K	1083.7 ± 1	–
317.15 K	1083.04 ± 1	–
318.15 K	1082.38 ± 1	184.4 ± 8.2
319.15 K	1081.72 ± 1	–
320.15 K	1081.06 ± 1	–
321.15 K	1080.4 ± 1	–
322.15 K	1079.75 ± 1	–
323.15 K	1079.09 ± 1	143.8 ± 6.2
324.15 K	1078.44 ± 1	–
325.15 K	1077.78 ± 1	–
326.15 K	1077.13 ± 1	–
327.15 K	1076.48 ± 1	–
328.15 K	1075.83 ± 1	113.9 ± 4.8
329.15 K	1075.17 ± 0.99	–
330.15 K	1074.52 ± 0.99	–
331.15 K	1073.87 ± 0.99	–
332.15 K	1073.23 ± 0.99	–
333.15 K	1072.58 ± 0.99	91.6 ± 3.8
334.15 K	1071.93 ± 0.99	–
335.15 K	1071.29 ± 0.99	–
336.15 K	1070.64 ± 0.98	–
337.15 K	1070 ± 0.98	–
338.15 K	1069.35 ± 0.98	74.5 ± 3.1
339.15 K	1068.71 ± 0.98	–
340.15 K	1068.07 ± 0.98	–
341.15 K	1067.43 ± 0.98	–
342.15 K	1066.79 ± 0.98	–
343.15 K	1066.15 ± 0.97	61.4 ± 2.5
344.15 K	1065.51 ± 0.97	–
345.15 K	1064.87 ± 0.97	–
346.15 K	1064.23 ± 0.97	–
347.15 K	1063.6 ± 0.97	–
348.15 K	1062.96 ± 0.97	51.1 ± 2.1
349.15 K	1062.32 ± 0.97	–
350.15 K	1061.69 ± 0.97	–
351.15 K	1061.05 ± 0.96	–
352.15 K	1060.42 ± 0.96	–
353.15 K	1059.79 ± 0.96	43 ± 1.8
354.15 K	1059.16 ± 0.96	–
355.15 K	1058.53 ± 0.96	–
356.15 K	1057.89 ± 0.96	–
357.15 K	1057.26 ± 0.96	–
358.15 K	1056.63 ± 0.96	36.5 ± 1.5
359.15 K	1056 ± 0.95	–
360.15 K	1055.37 ± 0.95	–
361.15 K	1054.75 ± 0.95	–
362.15 K	1054.12 ± 0.95	–
363.15 K	1053.49 ± 0.95	31.3 ± 1.3
368.15 K	–	27 ± 1.1
373.15 K	–	23.5 ± 1
